These results are taken from patent publication EP1885364B1, “HALOGENATED QUINDOLINE DIMERS FOR THE TREATMENT OF CANCER” (Crystax Pharmaceuticals, S.L., priority 2005, dated 2006).

Structures are written as SMILES.

What all share (format): cell-based
In test [1] the test system is RPMI-1788 leukocytes of peripherial blood from healthy person. The test can be described thus: MTT in vitro cytotoxicity, RPMI-1788. The settings on record: Homo sapiens, RPMI-1788 cells (from healthy person), concentrations until 100 µM, incubation until 72 h. From the text:
(§1) These compounds have been tested in a greater number of different cell lines. IC50 is the compound concentration at which 50% of a specific cell type die in a standardized assay, and thus a measure of cytotoxicity. Jurkat is a human leukaemia T cell line, GLC-4 is a human small-cell lung-carcinoma cell line, NIH-3T3 is a rat non-cancerous cell line, K-562 is a human chronic myelogenous leukemia cell line, A549 is a human lung carcinoma cell line, RPMI-1788 is a human leukocytes of peripherial blood from healthy […] cell line, MCF-7 is a human breast adenocarcinoma cell line, Capan-2 is a human pancreas adenocarcinoma cell line, Colo320HSR is a human colon carcinoma cell line, SW-837 is a human rectum adenocarcinoma cell line, IM-9 is a human bone marrow myeloma cell line, IMR-32 is a human neuroblastoma cell line and MT-4 is a human mixed heart's and peripheral blood's lymphocytes of patients with T-cell leukemia cell line. Table 2. Biological activities of IIIa-IIIg.
(§2) The in vitro cytotoxicity of the compounds of the present invention was evaluated by colorimetric assays with tetrazol salts (MTT) on Jurkat clon E6-1 leukemia, on GLC-4 clon carcinoma, on K-562 chronic myelogenous leukemia, on A549 lung carcinoma, on RPMI-1788 leukocytes of peripherial blood from healthy […], on MCF-7 breast adenocarcinoma, on Capan-2 pancreas adenocarcinoma, on Colo320HSR colon carcinoma, on SW-837 rectum adenocarcinoma, on IM-9 bone marrow myeloma, on IMR-32 neuroblastoma and on MT-4 mixed heart's and peripheral blood's lymphocytes of patients with T-cell leukemia human cell lines, according to the protocol described by Mosmann et al. (J. Immunol. Methods, 1983,65, 55-63) incorporated herein by reference. In all cases the concentrations used were until 100 µM and times of incubation until 72 h. […] Table 3. Biological activities.

The subject of test [2] is NIH-3T3. The test is described as follows: Cytotoxicity in non-cancerous cell line NIH-3T3. The settings on record: NIH3T3; NIH-3T3 non-cancerous cell line.
Text: (§3) IC50 is the compound concentration at which 50% of a specific cell type die in a standardized assay, and thus a measure of cytotoxicity. Jurkat is a human leukaemia T cell line, GLC-4 is a human small-cell lung-carcinoma cell line and NIH-3T3 is a rat non-cancerous cell line. [drawing 3]
as §1

Test [3] concerns A549 lung carcinoma. The test can be described thus: MTT in vitro cytotoxicity, A549. The settings on record: Homo sapiens, A549 cells, concentrations until 100 µM, incubation until 72 h.
Text: as §1, §2

Test [4] relates to MCF-7 breast adenocarcinoma. The test can be described thus: MTT in vitro cytotoxicity, MCF-7. As to conditions: Homo sapiens, MCF7, MCF-7 cells, concentrations until 100 µM, incubation until 72 h. The method, then: (§4) These compounds have been tested in a greater number of different cell lines. IC50 is the compound concentration at which 50% of a specific cell type die in a standardized assay, and thus a measure of cytotoxicity. […]
(§5) The in vitro cytotoxicity of the compounds of the present invention was evaluated by colorimetric assays with tetrazol salts (MTT) on Jurkat clon E6-1 leukemia, on GLC-4 clon carcinoma, on K-562 chronic myelogenous leukemia, on A549 lung carcinoma, on RPMI-1788 leukocytes of peripherial blood from healthy […], on MCF-7 breast adenocarcinoma, on Capan-2 pancreas adenocarcinoma, on Colo320HSR colon carcinoma, on SW-837 rectum adenocarcinoma, on IM-9 bone marrow myeloma, on IMR-32 neuroblastoma and on MT-4 mixed heart's and peripheral blood's lymphocytes of patients with T-cell leukemia human cell lines, according to the protocol described by Mosmann et al. (J. Immunol. […]

For test [5], the system named is GLC-4. The test can be described thus: MTT in vitro cytotoxicity, GLC-4. The settings on record: Homo sapiens, GLC4, GLC-4 cells, concentrations until 100 µM, incubation until 72 h.
Text: as §3, §1, §2

The test system of test [6] is Colo320HSR colon carcinoma. The test can be described thus: MTT in vitro cytotoxicity, Colo320HSR. The settings on record: Homo sapiens, Colo-320HSR cells, concentrations until 100 µM, incubation until 72 h. The method, then:
as §4, §5

Test [7] relates to Capan-2 pancreas adenocarcinoma. The test can be described thus: MTT in vitro cytotoxicity, Capan-2. As to conditions: Homo sapiens, Capan-2 cells, concentrations until 100 µM, incubation until 72 h. How it is done:
as §4, §5

The test system of test [8] is IMR-32 neuroblastoma. The test is described as follows: MTT in vitro cytotoxicity, IMR-32. The settings on record: Homo sapiens, IMR-32 cells, concentrations until 100 µM, incubation until 72 h. How it is done: as §4, §5
The test system of test [9] is K-562 chronic myelogenous leukemia. The test is described as follows: MTT in vitro cytotoxicity, K-562. The settings on record: Homo sapiens, K562, K-562 cells, concentrations until 100 µM, incubation until 72 h.
Text: as §1, §2

In test [10] the test system is MT-4 mixed heart's and peripheral blood's lymphocytes of patients with T-cell leukemia. The test is described as follows: MTT in vitro cytotoxicity, MT-4. The settings on record: Homo sapiens, MT4, MT-4 cells, concentrations until 100 µM, incubation until 72 h. The method, then: as §4, §5
Test [11] relates to Jurkat clon E6-1 leukemia. The test can be described thus: MTT in vitro cytotoxicity, Jurkat. As to conditions: Homo sapiens, Jurkat cells, concentrations until 100 µM, incubation until 72 h.
Text: as §3, §1, §2

The test system of test [12] is IM-9 bone marrow myeloma. The test can be described thus: MTT in vitro cytotoxicity, IM-9. As to conditions: Homo sapiens, IM-9 cells, concentrations until 100 µM, incubation until 72 h. The method, then: as §4, §5
Test [13] deals with SW-837 rectum adenocarcinoma. The test is described as follows: MTT in vitro cytotoxicity, SW-837. The settings on record: Homo sapiens, SW837, SW-837 cells, concentrations until 100 µM, incubation until 72 h. How it is done:
as §4, §5

For orientation: IC50 means the concentration that inhibits the measured activity by half. Lower therefore signals greater potency. As for `CN(CCCNC(=O)c1c2cc(Cl)ccc2nc2c1[nH]c1ccccc12)CCCNC(=O)c1c2cc(Cl)ccc2nc2c1[nH]c1ccccc12` [IIIa, N,N'-(4-methyl-4-azaheptamethylene)-di-(-2-chloro-10H-indolo[3,2-b]quinoline)-11,11'-arboxamide], the IC50 in [1] was determined as 3 µM; in [2], 11.2 µM; in test [3] it was 12.2 µM; in test [4], 3.4 µM; in test [5], 0.16 µM; in [6], 0.45 µM. Further, the IC50 turned out to be 20.1 µM in test [7]; 0.9 µM in [8]; 0.65 µM in test [9]; 4.5 µM in [10]; 0.09 µM in [11]; 4.6 µM in test [12]. The same molecule yielded a concentration for half-maximal inhibition (IC50) in test [13] of 6.2 µM.
As to `CN(CCCNC(=O)c1c2ccccc2nc2c1[nH]c1ccccc12)CCCNC(=O)c1c2ccccc2nc2c1[nH]c1ccccc12` [Ia, reference compound], the figures for the concentration for half-maximal inhibition (IC50) in [2], in test [5] and in test [11] were 6.77 µM, 1.45 µM and 0.97 µM, respectively.
For `CN(CCCNC(=O)c1c2ccccc2nc2c1[nH]c1ccccc12)CCCNC(=O)c1c2cc(F)ccc2nc2c1[nH]c1ccccc12` [IIIf, N-[3-[[3-[11-((2-fluoro-10H-indolo[3,2-b]quinoline)carbonyl)amino]-propyl]-methylamino]propyl]-10H-indolo[3,2-b]quinoline-11-carboxamide], the half-inhibitory concentration (IC50) came out at 1.7 µM in test [1], 1.6 µM in test [3], 2.8 µM in test [9] and 0.2 µM in test [11].
Regarding `O=C(O)c1c2cc(F)ccc2nc2c1[nH]c1ccccc12` [IIb], the 50% inhibitory concentration (IC50) in [5] worked out at 12 µM; in test [11], 13 µM.
Consider `O=C(O)c1c2cc(Br)ccc2nc2c1[nH]c1ccccc12` [IIc], for which the IC50 in [11] is greater than 25 µM.
On to `CN(CCCNC(=O)c1c2cc(F)ccc2nc2c1[nH]c1ccccc12)CCCNC(=O)c1c2cc(F)ccc2nc2c1[nH]c1ccccc12` [IIIb, N,N'-(4-methyl-4-azaheptamethylene)-di-(-2-fluoro-10H-indolo[3,2-b]quinoline)-11,11'-carboxamide], for which the half-maximal inhibitory concentration (IC50) is 5.3 µM in test [1]; 64.3 µM in test [2]; 10 µM in [3]; 4.8 µM in test [4]; 3.2 µM in test [6]; 25.5 µM in [7]. Besides, the IC50 in test [8] was 0.7 µM; in test [9], 1.1 µM; in [10] it was 9 µM; in [11] it was 0.5 µM; in test [12], 7.5 µM; in test [13] it was 17.9 µM.
With `CN(CCCNC(=O)c1c2cc(Cl)ccc2nc2c1[nH]c1ccccc12)CCCNC(=O)c1c2cc(Br)ccc2nc2c1[nH]c1ccccc12` [IIId, N-[3-[[3-[11-((2-bromo-10H-indolo[3,2-b]quinoline)carbonyl)amino]-propyl]-methylamino]propyl]-2-chloro-10H-indolo[3,2-b]quinoline-11-carboxamide], the IC50 in test [1] stood at 3.5 µM; in test [3], 12.9 µM; in test [9] it was 5.3 µM; in [11], 0.6 µM.
In the same order, the values of `CN(CCCNC(=O)c1c2ccccc2nc2c1[nH]c1ccccc12)CCCNC(=O)c1c2cc(Cl)ccc2nc2c1[nH]c1ccccc12` [IIIg, N-[3-[[3-[11-((2-chloro-10H-indolo[3,2-b]quinoline)carbonyl)amino]-propyl]-methylamino]propyl]-10H-indolo[3,2-b]quinoline-11-carboxamide] are 3.2 µM, 6.2 µM, 5.8 µM and 0.7 µM.
As to `CN(CCCNC(=O)c1c2cc(F)ccc2nc2c1[nH]c1ccccc12)CCCNC(=O)c1c2cc(Cl)ccc2nc2c1[nH]c1ccccc12` [IIIe, N-[3-[[3-[11-((2-chloro-10H-indolo[3,2-b]quinoline)carbonyl)amino]-propyl]-methylamino]propyl]-2-fluoro-10l-l-indolo[3,2-b]quinoline-11-carboxamide], the half-inhibitory concentration (IC50) is 2.9 µM in [1], 11.6 µM in [3], 6.1 µM in test [9] and 0.5 µM in test [11].
Regarding `O=C(O)c1c2cc(Cl)ccc2nc2c1[nH]c1ccccc12` [IIa], the IC50 in test [5] is 15.7 µM; in test [11], greater than 25 µM.
Take `CN(CCCNC(=O)c1c2cc(Br)ccc2nc2c1[nH]c1ccccc12)CCCNC(=O)c1c2cc(Br)ccc2nc2c1[nH]c1ccccc12` [IIIc, N,N'-(4-methyl-4-azaheptamethylene)-di-(-2-bromo-10H-indolo[3,2-b]quinoline)-11,11'-carboxamide]: the half-inhibitory concentration (IC50) in test [1] is 9.1 µM; in [11], 0.8 µM.
